The subject of the assay is CamASNase. The experiment in a line: initial rates at varied L-asparagine, Lineweaver-Burk. Conditions: pH 7.4, 37 °C; L-asparagine 1 to 80 µM. Type of assay: biochemical, Chryseomicrobium amylolyticum.

On to `NC(=O)C[C@H](N)C(=O)O` [L-asparagine], for which the Km – broadly, the substrate concentration at which the rate is half of its maximum – was 6.36 µM.

The values above are taken from PMC12287261 (Scientific Reports, 2025).
